Results taken from patent publication EP1689759B1, “METHOD FOR PRODUCING PURE DISODIUM PAMIDRONATE” (Mustafa Nevzat Ilac Sanayii A.S., priority 2003, dated 2005).
Several values for one entry are separate records, joined by “and”; a condition that tells them apart may be missing. Identical values can stand only once. Each block holds one molecule with its values, some of them ahead of it.

Experiments:
[1] = from 1 week under the conditions of 24°C, 50 % RH; water contents 24,41 %; cited from earlier work
[2] = Storage stability at normal pressure over 1 week under ICH conditions (water content by KF); format: physicochemical
Description: (§1) These investigations were carried out in a HERAEUS vacuum drying oven of a volume of 53 liters, at a relative humidity (RH) of less than 1 %. Investigations of storage stability at normal pressure were carried out over a period of 1 week, in compliance with the internationally accepted standards about storage stability test conditions for pharmaceuticals as defined in ICH (International Conference on Harmonization of Technical Requirements for Registration of Pharmaceuticals for Human Use), at 25°C / 60 % RH for longterm stability condition, 30°C / […] for intermediate term stability condition and 40°C / 75 % RH for accelerated stability condition.
Table 1. Water content (%, KF) of 3 lots of disodium pamidronate after storage for 1 week

[3] = Storage at room temperature at reduced pressure in vacuum drying oven (water content by KF); format: physicochemical; conditions: for water by KF method: room temperature, reduced pressure (20 millibar), RH less than 1 %
Description: as §1

Compound: NCCC(O)(P(=O)([O-])O)P(=O)([O-])O.O.O.O.O.O.[Na+].[Na+] [5 hydrates]
loss of water contents on storage [1]: a part of the water contents (24,41 %) is lost

Compound: NCCC(O)(P(=O)([O-])O)P(=O)([O-])O.O.O.O.O.O.[Na+].[Na+] [Lot 0035, disodium pamidronate pentahydrate]
Water content (%, KF) ([2]; after storage for 1 week at 25°C/60%RH (longterm stability condition), listed as 0035): 24.40% | Water content (%, KF) ([2]; after storage for 1 week at 30°C/60%RH (intermediate term stability condition), listed as 0035): 24.39% | Water content (%, KF) ([2]; after storage for 1 week at 40°C/75%RH (accelerated stability condition), listed as 0035): 24.27% | Water content (%, KF) ([2]; initial, before storage, listed as 0035): 24.38%

Compound: NCCC(O)(P(=O)([O-])O)P(=O)([O-])O.O.O.O.O.O.[Na+].[Na+] [disodium pamidronate pentahydrate]
storage stability ([2]; 1 week at 25°C/60 % RH, 30°C/60 % RH and 40°C/75 % RH): stable | water by KF method ([3]; after 4 hours of storage): 24.7% | water by KF method ([3]; after 10 hours of storage): 24.4% | water by KF method ([3]; after 38 hours of storage (determined in triplicate)): 24.35% and 24.38% and 24.32% | Stability of the product (loss of water) ([3]; stored at room temperature at reduced pressure (20 millibar)): no loss of water

Other lines, results leading:

Water content (%, KF) ([2]; after storage for 1 week at 25°C/60%RH (longterm stability condition), listed as 0034): 24.37% | Water content (%, KF) ([2]; after storage for 1 week at 30°C/60%RH (intermediate term stability condition), listed as 0034): 24.38% | Water content (%, KF) ([2]; after storage for 1 week at 40°C/75%RH (accelerated stability condition), listed as 0034): 24.43% | Water content (%, KF) ([2]; initial, before storage, listed as 0034): 24.55%
Compound: NCCC(O)(P(=O)([O-])O)P(=O)([O-])O.O.O.O.O.O.[Na+].[Na+] [Lot 0034, disodium pamidronate pentahydrate]

Water content (%, KF) ([2]; after storage for 1 week at 25°C/60%RH (longterm stability condition), listed as 0036): 24.32% | Water content (%, KF) ([2]; after storage for 1 week at 30°C/60%RH (intermediate term stability condition), listed as 0036): 24.35% | Water content (%, KF) ([2]; after storage for 1 week at 40°C/75%RH (accelerated stability condition), listed as 0036): 24.39% | Water content (%, KF) ([2]; initial, before storage, listed as 0036): 24.48%
Compound: NCCC(O)(P(=O)([O-])O)P(=O)([O-])O.O.O.O.O.O.[Na+].[Na+] [Lot 0036, disodium pamidronate pentahydrate]
